# Patent US6936609B2, “Imidazotriazines for use as phosphodiesterase inhibitors” (Bayer HealthCare AG, priority 2001, dated 2005)
# Target: T1, PDE 10A (Homo sapiens, UniProt Q9Y233)
# T1 construct: is expressed recombinantly in full length in Sf9 insect cells; made in house; host or cells: Sf9 insect cells (Bac-to-Bac baculovirus system); lysate supernatant used as the enzyme preparation
# Assay: Inhibition of PDE 10A (in vitro enzyme inhibition test)
# Type: biochemical
# Conditions: recombinant full-length PDE10A expressed in Sf9 insect cells; substrate [5',8-3H] adenosine 3',5'-cyclic phosphate; 60 min at room temperature; scintillation proximity beads
# Method: PDE10A (WO 01/29 199, FIG. 1A) is expressed recombinantly in full length in Sf9 insect cells (Invitrogen, Carlsbad, Calif.) with the aid of the Bac-to-Bac™ Baculovirus expression system of Life Technologies (Gaithersburg, Md.). 48 h after the infection, the cells are harvested and suspended in 20 ml (per 1 l of culture) of lysis buffer (50 mM tris HCl, pH 7.4, 50 mM NaCl, 1 mM MgCl2, 1.5 mM EDTA, 10% glycerol plus 20 μl of Protease Inhibitor Cocktail Set III [CalBiochem, La Jolla, Calif. USA]). The cells are treated at 4° C. for 1 minute with ultrasound and subsequently centrifuged at 10000 rpm for 30 minutes at 4° C. The supernatant (PDE10A preparation) was collected and stored at −20° C.
# The test substances are dissolved and serially diluted in 100% DMSO for the determination of their in vitro action on PDE 10A. Typically, dilution series of 200 μM to 1.6 μM are prepared (resulting final concentrations in the test: 4 μM to 0.032 μM). In each case, 2 μl of the diluted substance solutions are introduced into the wells of microtitre plates (Isoplate; Wallac Inc., Atlanta, Ga.). 50 μl of a dilution of the PDE10A preparation described above are subsequently added. The dilution of the PDE10A preparation is chosen such that during the later incubation less than 70% of the substrate is reacted (typical dilution: 1:10000; dilution buffer: 50 mM tris/HCl pH 7.5, 8.3 mM MgCl2, 1.7 mM EDTA, 0.2% BSA). The substrate, [5′,8-^3H] adenosine 3′, 5′-cyclic phosphate (1 μCi/μl; Amersham Pharmacia Biotech., Piscataway, N.J.) is diluted 1:2000 to a concentration of 0.0005 μCi/μl with assay buffer (50 mM tris/HCl pH 7.5, 8.3 mM MgCl2, 1.7 mM EDTA). The enzyme reaction is finally started by addition of 50 μl (0.025 μCi) of the diluted substrate. The test batches are incubated at room temperature for 60 min and the reaction is stopped by addition of 25 μl of a suspension containing 18 mg/ml of Yttrium Scintillation Proximity Beads (Amersham Pharmacia Biotech., Piscataway, N.J.). The microtitre plates are sealed using a film and allowed to stand at room temperature for 60 min. The plates are subsequently measured for 30 s per well in a Microbeta scintillation counter (Wallac Inc., Atlanta, Ga.). IC50 values are determined with the aid of graphic plotting of the substance concentration against the percentage inhibition.
# T1 sequence (Q9Y233 1-779 isoform Q9Y233-1): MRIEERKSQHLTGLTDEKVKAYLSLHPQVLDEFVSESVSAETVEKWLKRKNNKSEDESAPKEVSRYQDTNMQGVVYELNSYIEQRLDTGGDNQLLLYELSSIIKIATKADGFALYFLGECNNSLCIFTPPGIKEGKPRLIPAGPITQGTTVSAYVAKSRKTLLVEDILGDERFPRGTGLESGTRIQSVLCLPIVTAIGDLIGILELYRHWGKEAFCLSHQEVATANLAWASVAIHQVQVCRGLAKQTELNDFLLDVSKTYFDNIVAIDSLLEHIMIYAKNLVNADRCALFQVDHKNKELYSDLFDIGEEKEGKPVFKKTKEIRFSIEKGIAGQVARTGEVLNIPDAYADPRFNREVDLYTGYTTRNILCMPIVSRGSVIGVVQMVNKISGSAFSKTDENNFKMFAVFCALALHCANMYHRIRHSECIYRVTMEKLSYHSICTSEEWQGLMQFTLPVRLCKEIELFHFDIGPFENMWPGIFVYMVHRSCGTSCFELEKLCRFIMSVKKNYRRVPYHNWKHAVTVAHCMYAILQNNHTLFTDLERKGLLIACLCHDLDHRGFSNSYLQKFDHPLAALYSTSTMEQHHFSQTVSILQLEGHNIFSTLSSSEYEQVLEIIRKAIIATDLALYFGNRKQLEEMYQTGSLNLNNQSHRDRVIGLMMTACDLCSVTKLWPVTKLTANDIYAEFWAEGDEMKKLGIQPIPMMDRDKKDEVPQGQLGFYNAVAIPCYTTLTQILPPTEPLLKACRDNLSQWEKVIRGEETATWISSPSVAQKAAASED
row,SMILES,IC50
1,"CCCc1nc(C)c2c(Nc3cccc(O)c3)nc(-c3ccccc3OCC)nn12 [Example 43, 3-{[2-(2-Ethoxyphenyl)-5-methyl-7-propylimidazo[5,1-f][1,2,4]triazin-4-yl]-amino}phenol]",2400 nM
2,"COc1ccc(Nc2nc(-c3ccc(OC)c(OC)c3)nn3c(C4CCCC4)nc(C)c23)cc1Cl [Example 16, N-(3-Chloro-4-methoxyphenyl)-7-cyclopentyl-2-(3,4-dimethoxyphenyl)-5-methyl-imidazo[5,1-f][1,2,4]triazin-4-amine]",210 nM
3,"COc1cc(CNc2nc(-c3ccc(OC)c(OC)c3)nn3c(C)nc(C)c23)cc(OC)c1 [Example 3, N-(3,5-Dimethoxybenzyl)-2-(3,4-dimethoxyphenyl)-5,7-dimethylimidazo[5,1-f]-[1,2,4]triazin-4-amine]",360 nM

# Tested on: not given
# Assay: not given
# Conditions: not given
row,SMILES,melting point
1,"COc1ccc(-c2nc(SCc3cccnc3)c3c(C)nc(C)n3n2)cc1OC [Example 4, 2-(3,4-Dimethoxyphenyl)-5,7-dimethyl-4-[(3-pyridinylmethyl)sulphanyl]imidazo-[5,1-f][1,2,4]triazine]",161 °C
2,"COc1ccc(-c2nc(Nc3cc(C)c(OC)c(C)c3)c3c(C)nc(C4CCCC4)n3n2)cc1OC [Example 15, 7-Cyclopentyl-2-(3,4-dimethoxyphenyl)-N-(4-methoxy-3,5-dimethylphenyl)-5-methylimidazo[5,1-f][1,2,4]triazin-4-amine]",180 °C
3,"COc1cccc(Nc2nc(-c3ccc(OC)c(OC)c3)nn3c(C4CCCC4)nc(C)c23)c1 [Example 23, 7-Cyclopentyl-2-(3,4-dimethoxyphenyl)-N-(3-methoxyphenyl)-5-methylimidazo-[5,1-f][1,2,4]triazin-4-amine]",126 °C
4,"COc1ccc(-c2nc(Oc3cc(OC)c(OC)c(OC)c3)c3c(C)nc(C)n3n2)cc1Cl [Example 29, 2-(3-Chloro-4-methoxyphenyl)-5,7-dimethyl-4-(3,4,5-trimethoxyphenoxy)imidazo-[5,1-f][1,2,4]triazine]",213 °C
5,"CCC(CC)c1nc(C)c2c(Oc3cc(OC)c(OC)c(OC)c3)nc(-c3ccc(OC)c(Cl)c3)nn12 [Example 32, 2-(3Chloro-4-methoxyphenyl)-7-(1-ethylpropyl)-5-methyl-4-(3,4,5-trimethoxyphenoxy)imidazo[5,1-f][1,2,4]triazine]",166 °C
6,"CCCc1nc(C)c2c(NCc3ccc(OC)cc3OC)nc(-c3ccccc3OCC)nn12 [Example 46, N-(2,4-Dimethoxybenzyl)-2-(2-ethoxyphenyl)-5-methyl-7-propylimidazo[5,1-f]-[1,2,4]triazin-4-amine]",98 to 99 °C
7,"COc1ccc(-c2nc(NCc3cc(OC)c(OC)c(OC)c3)c3c(C)nc(C4CCCC4)n3n2)cc1OC [Example 17, 7-Cyclopentyl-2-(3,4-dimethoxyphenyl)-5-methyl-N-(3,4,5-trimethoxybenzyl)-imidazo[5,1-f][1,2,4]triazin-4-amine]",188 °C
8,"COc1cc(Oc2nc(-c3ccc(Br)cc3)nn3c(C)nc(C)c23)cc(OC)c1OC [Example 28, 2-(4-Bromophenyl)-5,7-dimethyl-4-(3,4,5-trimethoxyphenoxy)imidazo[5,1-f]-[1,2,4]triazine]",199 °C
9,"COc1ccc(-c2nc(Nc3ccc(OC)c(OC)c3)c3c(C)nc(C)n3n2)cc1Cl [Example 33, 2-(3-Chloro-4-methoxyphenyl)-N-(3,4-dimethoxyphenyl)-5,7-dimethylimidazo-[5,1-f][1,2,4]triazin-4-amine]",220 to 222 °C
10,"COc1ccc(Nc2nc(-c3ccc(OC)c(OC)c3)nn3c(C4CCCC4)nc(C)c23)cc1 [Example 20, 7-Cyclopentyl-2-(3,4-dimethoxyphenyl)-N-(4-methoxyphenyl)-5-methylimidazo-[5,1-f][1,2,4]triazin-4-amine]",185 °C
11,"CCCc1nc(C)c2c(Sc3ccc(NC(C)=O)cc3)nc(-c3ccccc3OCC)nn12 [Example 36, N-(4-{[2-(2-Ethoxyphenyl)-5-methyl-7-propylimidazo[5,1-f][1,2,4]triazin-4-yl]-sulphanyl}phenyl)acetamide]",226 to 228 °C
12,"COc1ccc(-c2nc(Oc3cc(OC)c(OC)c(OC)c3)c3c(C)nc(CC(C)C)n3n2)cc1Cl [Example 30, 2-(3-Chloro-4-methoxyphenyl)-7-isobutyl-5-methyl-4-(3,4,5-trimethoxyphenoxy)-imidazo[5,1-f][1,2,4]triazine]",160 °C
13,"COc1ccc(-c2nc(Nc3cc(C)c(OC)c(C)c3)c3c(C)nc(C)n3n2)cc1OC [Example 14, 2-(3,4-Dimethoxyphenyl)-N-(4-methoxy-3,5-dimethylphenyl)-5,7-dimethylimidazo-[5,1-f][1,2,4]triazin-4-amine]",173 °C
14,"CCCc1nc(C)c2c(Nc3cccc(Br)c3)nc(-c3ccccc3OCC)nn12 [Example 39, N-(3-Bromophenyl)-2-(2-ethoxyphenyl)-5-methyl-7-propylimidazo[5,1-f]-[1,2,4]triazin-4-amine]",96 °C
15,"COc1ccc(CNc2nc(-c3ccc(Br)cc3)nn3c(C)nc(C)c23)cc1OC [Example 51, 2-(4-Bromophenyl)-N-(3,4-dimethoxybenzyl)-5,7-dimethylimidazo[5,1-f]-[1,2,4]triazin-4-amine]",119 to 122 °C
16,"COc1ccc(-c2nc(Nc3cc(OC)c(OC)c(OC)c3)c3c(C)nc(C)n3n2)cc1Cl [Example 34, 2-(3-Chloro-4-methoxyphenyl)-N-(3,4,5-trimethoxyphenyl)-5,7-dimethylimidazo-[5,1-f][1,2,4]triazin-4-amine]",194 to 195 °C
17,"COc1cc(OC)cc(-c2nc(Nc3cc(OC)c(OC)c(OC)c3)c3c(C)nc(C)n3n2)c1 [Example 54, 2-(3,5-Dimethoxyphenyl)-5,7-dimethyl-N-(3,4,5-trimethoxyphenyl)imidazo[5,1-f]-[1,2,4]triazin-4-amine]",176 to 179 °C
18,"CCOc1ccc(CCNc2nc(-c3ccc(Br)cc3)nn3c(C)nc(C)c23)cc1OC [Example 35, 2-(4-Bromophenyl)-N-[2-(4-ethoxy-3-methoxyphenyl)ethyl]-5,7-dimethylimidazo-[5,1-f][1,2,4]triazin-4-amine]",188 to 190 °C
19,"CCCc1nc(C)c2c(Nc3cc(OC)c(OC)c(OC)c3)nc(-c3ccccc3OCC)nn12 [Example 44, 2-(2-Ethoxyphenyl)-5-methyl-7-propyl-N-(3,4,5-trimethoxyphenyl)imidazo[5,1-f]-[1,2,4]triazin-4-amine]",112 to 114 °C
20,"COc1ccc(Nc2nc(-c3ccc(OC)c(OC)c3)nn3c(C)nc(C)c23)cc1Cl [Example 13, N-(3-Chloro-4-methoxyphenyl)-2-(3,4-dimethoxyphenyl)-5,7-dimethylimidazo [5,1-f][1,2,4]triazin-4-amine]",195 °C
21,"CCCc1nc(C)c2c(Oc3cc(OC)c(OC)c(OC)c3)nc(-c3ccccc3OCC)nn12 [Example 101, 2-(2-Ethoxyphenyl)-5-methyl-7-propyl-4-(3,4,5-trimethoxyphenoxy)imidazo[5,1-f]-[1,2,4]triazine]",153 °C
22,"COc1ccc(-c2nc(Oc3cc(OC)c(OC)c(OC)c3)c3c(C)nc(C)n3n2)cc1OC [Example 22, 2-(3,4-Dimethoxyphenyl)-5,7-dimethyl-4-(3,4,5-trimethoxyphenoxy)imidazo[5,1-f]-[1,2,4]triazine]",184 °C
23,"CCc1nc(C2CCCC2)n2nc(-c3ccc(OC)cc3)nc(Nc3cc(OC)c(OC)c(OC)c3)c12 [Example 26, N-[7Cyclopentyl-5-ethyl-2-(4-methoxyphenyl)imidazo[5,1-f][1,2,4]triazin-4-yl]-N-(3,4,5-trimethoxyphenyl)amine]",160 °C
24,"COc1cc(OC)cc(-c2nc(Oc3cc(OC)c(OC)c(OC)c3)c3c(C)nc(C)n3n2)c1 [Example 27, 2-(3,5-Dimethoxyphenyl)-5,7-dimethyl-4-(3,4,5-trimethoxyphenoxy)imidazo[5,1-f]-[1,2,4]triazine]",220 °C
25,"CCc1nc(C2CCCC2)n2nc(-c3ccc(OC)c(S(=O)(=O)N4CCOCC4)c3)nc(Oc3cc(OC)c(OC)c(OC)c3)c12 [Example 25, 7-Cyclopentyl-5-ethyl-2-[4-methoxy-3-(4-morpholinylsulphonyl)phenyl]-4-(3,4,5-trimethoxyphenoxy)imidazo[5,1-f][1,2,4]triazine]",119 °C
